The source made the active and inactive calls.

Experiment [1] addresses T1, Replicative DNA helicase DnaB (Mycobacterium tuberculosis, UniProt P9WMR3).
T1 sequence (P9WMR3 whole entry): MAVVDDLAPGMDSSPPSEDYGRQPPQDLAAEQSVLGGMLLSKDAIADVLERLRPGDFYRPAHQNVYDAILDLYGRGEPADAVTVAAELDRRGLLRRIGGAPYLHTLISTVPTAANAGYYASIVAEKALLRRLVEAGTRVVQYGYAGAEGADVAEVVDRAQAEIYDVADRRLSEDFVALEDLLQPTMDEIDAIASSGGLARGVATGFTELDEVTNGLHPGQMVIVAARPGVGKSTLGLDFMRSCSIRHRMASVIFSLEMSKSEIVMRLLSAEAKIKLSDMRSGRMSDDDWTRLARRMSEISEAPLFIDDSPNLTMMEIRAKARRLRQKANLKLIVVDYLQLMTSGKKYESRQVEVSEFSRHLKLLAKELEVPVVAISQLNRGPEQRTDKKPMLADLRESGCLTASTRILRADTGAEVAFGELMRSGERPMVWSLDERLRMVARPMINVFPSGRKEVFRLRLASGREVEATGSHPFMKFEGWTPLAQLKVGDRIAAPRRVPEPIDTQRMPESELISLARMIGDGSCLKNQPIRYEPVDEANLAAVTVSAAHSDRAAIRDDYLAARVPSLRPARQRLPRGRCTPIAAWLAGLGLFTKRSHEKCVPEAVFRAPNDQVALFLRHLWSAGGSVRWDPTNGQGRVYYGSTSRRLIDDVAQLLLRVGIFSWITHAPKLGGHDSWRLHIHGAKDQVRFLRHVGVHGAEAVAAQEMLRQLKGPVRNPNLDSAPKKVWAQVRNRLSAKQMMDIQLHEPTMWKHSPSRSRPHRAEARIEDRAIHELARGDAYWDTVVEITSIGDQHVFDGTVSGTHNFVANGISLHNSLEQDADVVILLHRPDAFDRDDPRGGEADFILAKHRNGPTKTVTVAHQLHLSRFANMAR
The experiment in a line: DnaB intein splicing inhibitors, dose response, biochemical, cell-free fluorescence (AID 449749). The experiment is classed as functional.

The target in another experiment is T2, Protein RecA (Mycobacterium tuberculosis, UniProt P9WHJ3).
T2 sequence (P9WHJ3 whole entry): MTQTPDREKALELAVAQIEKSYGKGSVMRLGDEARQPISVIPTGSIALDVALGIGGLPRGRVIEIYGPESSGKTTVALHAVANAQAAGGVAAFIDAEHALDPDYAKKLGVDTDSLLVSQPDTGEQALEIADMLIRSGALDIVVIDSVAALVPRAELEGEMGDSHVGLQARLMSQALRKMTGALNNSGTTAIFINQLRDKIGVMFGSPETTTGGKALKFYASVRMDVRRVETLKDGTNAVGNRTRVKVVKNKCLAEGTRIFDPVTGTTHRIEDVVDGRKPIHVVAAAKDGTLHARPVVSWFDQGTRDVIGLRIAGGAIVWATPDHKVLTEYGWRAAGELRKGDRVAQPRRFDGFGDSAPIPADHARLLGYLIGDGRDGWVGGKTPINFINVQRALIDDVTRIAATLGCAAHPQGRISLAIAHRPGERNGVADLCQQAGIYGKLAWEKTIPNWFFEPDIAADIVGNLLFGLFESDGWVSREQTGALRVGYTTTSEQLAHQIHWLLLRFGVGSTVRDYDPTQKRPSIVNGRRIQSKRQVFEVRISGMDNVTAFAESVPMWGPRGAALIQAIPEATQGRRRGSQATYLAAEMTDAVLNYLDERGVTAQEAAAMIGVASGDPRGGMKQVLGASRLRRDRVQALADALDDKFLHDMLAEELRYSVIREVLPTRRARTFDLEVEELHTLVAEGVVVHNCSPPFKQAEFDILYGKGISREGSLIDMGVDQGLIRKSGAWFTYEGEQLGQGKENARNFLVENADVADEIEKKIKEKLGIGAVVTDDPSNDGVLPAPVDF
The experiment in a line: Fluorescence Cell-Free Homogeneous Dose Retest to Identify Inhibitors of RecA-Intein Splicing Activity. [Related pubchem assays (depositor defined):AID2097, AID2223, AID489010, AID492950]. The experiment is classed as functional.

For experiment [2], the target named is Matrix metalloproteinase-14 (Homo sapiens, UniProt P50281). The experiment is described as follows: Dose Response confirmation of uHTS hits for a small molecule inhibitors of MT1-MMP activation in a fluorescence assay set 1. In kind it is functional.
For experiment [3], the target named is T3, Sentrin-specific protease 7 (Homo sapiens, UniProt Q9BQF6).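 Also: Luminescence-based dose-response confirmation of ultra-high-throughput screening hits, measuring inhibition of SENP7.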
T3 sequence (Q9BQF6 whole entry): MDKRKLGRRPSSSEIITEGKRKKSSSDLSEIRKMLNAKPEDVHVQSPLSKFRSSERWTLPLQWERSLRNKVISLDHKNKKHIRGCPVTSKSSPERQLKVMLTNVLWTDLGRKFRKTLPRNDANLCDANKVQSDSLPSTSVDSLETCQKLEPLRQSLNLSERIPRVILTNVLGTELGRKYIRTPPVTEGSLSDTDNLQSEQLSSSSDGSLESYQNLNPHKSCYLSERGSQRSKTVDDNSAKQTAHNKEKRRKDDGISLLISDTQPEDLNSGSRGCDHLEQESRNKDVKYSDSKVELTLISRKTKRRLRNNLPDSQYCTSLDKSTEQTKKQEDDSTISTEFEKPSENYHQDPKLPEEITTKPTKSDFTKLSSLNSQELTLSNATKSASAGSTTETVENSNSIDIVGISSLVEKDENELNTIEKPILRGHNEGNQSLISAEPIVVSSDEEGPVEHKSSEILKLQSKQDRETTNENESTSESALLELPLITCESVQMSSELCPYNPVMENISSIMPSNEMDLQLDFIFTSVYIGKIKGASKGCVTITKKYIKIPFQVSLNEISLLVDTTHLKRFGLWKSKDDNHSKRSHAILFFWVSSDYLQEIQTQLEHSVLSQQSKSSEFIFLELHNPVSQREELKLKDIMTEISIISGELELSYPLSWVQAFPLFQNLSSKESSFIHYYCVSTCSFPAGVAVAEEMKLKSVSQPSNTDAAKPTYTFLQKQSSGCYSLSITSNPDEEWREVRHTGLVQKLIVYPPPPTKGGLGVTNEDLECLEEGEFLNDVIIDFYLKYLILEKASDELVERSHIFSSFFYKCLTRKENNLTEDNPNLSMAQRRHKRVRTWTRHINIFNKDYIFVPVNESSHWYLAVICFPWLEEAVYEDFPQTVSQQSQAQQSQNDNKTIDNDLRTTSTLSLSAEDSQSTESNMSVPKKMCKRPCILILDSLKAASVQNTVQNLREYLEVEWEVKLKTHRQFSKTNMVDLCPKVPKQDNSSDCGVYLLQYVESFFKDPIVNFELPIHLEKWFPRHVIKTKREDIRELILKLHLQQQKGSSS
The experiment is classed as functional.

The nature of experiment [4]: HEK-293T cell viability reduction – luminescence, B-cell screen hits, cytotoxicity control for BCR NF-kB inhibitor project, dose response (AID 489021).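 Also: HEK-293T cells carrying an NF-kB luciferase reporter; cells exposed to compound for about 14 hours before viability readout.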 The experiment is classed as functional, cell-based.

A word on the AC50: it is the concentration at which the activity in the assay is half-maximal. A word on the EC50: it is the concentration needed to bring the measured effect to its halfway point. What is called IC50 is the concentration that inhibits the measured activity by half. In the case of `CC1CC(C)CN(C(=O)c2ccc3c(c2NCCO)C(=O)c2ccccc2C3=O)C1` (configuration not stated), the AC50 in experiment [1] was 14.5 µM (active). The EC50 at Protein RecA was 20 µM (active). In experiment [2], the IC50 was 69 µM (inactive).

Consider `CCC(=O)N(C1=C(NC)C(=O)c2ccccc2C1=O)C(C)C`, for which the IC50 in experiment [3] was 33.2 µM (active); in experiment [4], > 80 µM (inactive). In addition, the AC50 in experiment [1] was 24.5 µM (active). For the same compound, the EC50 on Protein RecA is 9.21 µM (active).
